In patent publication US20190142974A1, “METHODS AND COMPOSITIONS FOR ATTENUATING ANTI-VIRAL TRANSFER VECTOR IGM RESPONSES” (Selecta Biosciences, Inc., priority 2017, published 2019):

System: AAV
Assay: Serum AAV IgG, ELISA
Format: in vivo, C57BL/6 female mice
Details: Example 12, FIG. 24B
Procedure: Same serum samples from Example 3 were also tested for AAV IgG measured by ELISA along the same lines as IgM with the exception of goat anti-mouse IgG specific-HRP being used.

SMILES: C=CC(=O)N1CCC[C@@H](n2nc(-c3ccc(Oc4ccccc4)cc3)c3c(N)ncnc32)C1 [ibrutinib]
- animals converting to AAV IgG-positive by d22: 10/10
